# Legend:
# [1] = test system: C2C12 cells; test: Cytotoxicity, MTS cell proliferation assay; format: cell-based; conditions: 24 h
# Protocol: (§1) Before testing the material in vivo, test materials were evaluated in vitro with C2C12 and PC12 cells to assess cytotoxicity to muscle and nerve cells respectively. Different compounds were directly added into the cell culture media (1 mg/mL, 0.33 mg/mL and 0.11 mg/mL) and incubated in the media bathing the cells (i.e. in direct contact with them) in conventional cell culture wells. After 24 h, cell viabilities were evaluated with the MTS assay, and their survival expressed as percentages of results in untreated cells. […] Due to the high molecular weight of the polymer-containing samples, their molar concentrations were perforce lower than that of the small molecule tetracaine. It would not be practical to culture cells in media containing the polymer concentration to be used in vivo (20 wt %), which would be very viscous. Therefore, test materials were placed in Transwell® inserts such that they were in continuity with the cell culture media.
# (§2) Cytotoxicity analysis. For the “direct contact” experiments, the cells were incubated in 48-well plates with concentration of formulations of 1, 0.33, 0.11 mg/mL in the media for all samples. For the “indirect contact” experiments, the cells were incubated in 24-well plates with a transwell in each well, in which 50 μL of tetracaine (0.5% wt %) or P407 (20% wt %) or P407-CM-T (20% wt %) was applied. After 24 h, the cell viabilities were evaluated with MTS assay as percentages of the control.
# [2] = test system: PC12 cells; test: Cytotoxicity, MTS cell proliferation assay; format: cell-based; conditions: 24 h
# Protocol: as §1, §2
# [3] = test system: rat footpad; test: Phototriggered local anesthesia (nerve block) after rat footpad injection, Touch Test neurobehavioral testing; format: in vivo; conditions: irradiance 0 W/cm^2, irradiation duration 0 min (no irradiation)
# Protocol: The effectiveness of light-triggered anesthesia using P407-CM-T was assessed in vivo after footpad injection in the rat (Table 1);^17, 28-32 this model was selected because it was anticipated that 400 nm light would not penetrate deeply into tissue.^33
# A hundred microliters of 20 wt % P407-CM-T were injected into the plantar aspect of the rat hind paw. […] Irradiation of the site of administration immediately after injection with a 400 nm LED at 200 mW/cm^2 for two minutes caused local anesthesia lasting 19.5±4.5 min (FIGS. 5A-5B). Local anesthesia was prolonged to 36.5±8.9 min (FIG. 5B) by increasing the irradiance to 300 mW/cm^2 also for 2 minutes (p<0.05 compared to 200 mW/cm^2). Extending the irradiation time to five minutes at 300 mW/cm^2 further extended local anesthesia to 66.7±24 min (p<0.05 compared to 300 mW/cm^2 for 2 min, FIG. 5B).
# It would be important for a light-triggerable local anesthetic system to be triggered repeatedly, so as to be able to treat pain over an extended period. To assess the ability of P407-CM-T to provide repeated on-demand local anesthesia, animals were injected in the footpad with 0.1 mL of 20 wt % P407-CM-T (FIG. 4D). […] The animal was then irradiated at the site of injection with 400 nm light at 300 mW/cm^2 for 2 min. […]
smiles,measurement,setting,value
"CCCCNc1ccc(C(=O)OCCN(C)C)cc1 [Tetracaine, tetracaine]",Cell viability (MTS),"[1]; C2C12, Transwell inserts, tetracaine 0.5% wt %, P407 20% wt %, P407-CM-T 20% wt %",greatly reduced cell survival
same,"Cytotoxicity (cell survival, MTS)","[1]; C2C12, direct contact, 1, 0.33 and 0.11 mg/mL in media",high cytotoxicity
same,Cell viability (MTS),"[2]; PC12, Transwell inserts, tetracaine 0.5% wt %, P407 20% wt %, P407-CM-T 20% wt %",greatly reduced cell survival
same,"Cytotoxicity (cell survival, MTS)","[2]; PC12, direct contact, 1, 0.33 and 0.11 mg/mL in media",high cytotoxicity
same,Duration of Block,[3],28.6 ± 7.1 min

# Source: patent US12427196B2, “Macromolecular prodrugs for light-emitting diodes and uses thereof” (Children's Medical Center Corporation, priority 2020, dated 2025)
